The text below walks through data of patent US5332740A, “DC-89 derivatives” (priority 1990, dated 1994).

One series has as its system various bacteria. Particulars: against various bacteria; cited from earlier work.
Another series concerns melanoma B-16. Particulars: against melanoma B-16; cited from earlier work.
The next series concerns ddY-strain male mice. The series is described as follows: Acute Toxicity Test. It counts as in vivo. Particulars: intraperitoneal; mortality observed for 14 days after the administration. How it is done: A test compound was intraperitoneally administered to ddY-strain male mice each weighing 20±1 g. MLD (the minimum lethal dose) was determined by observing the mortality for 14 days after the administration.

In the next series the test system is Sarcoma 180 tumor. The series can be described thus: Therapeutic Effect against Sarcoma 180 Tumor. In kind it is in vivo, male ddY-strain mice. Particulars: single intravenous, average tumor volume treated/control, seven days after implantation. On the procedure:
Therapeutic Effect against Sarcoma 180 Tumor
Five male ddY-strain mice each having a weight of 18 to 20 g were used for each group as test animals, and 5×10^5 Sarcoma 180 tumor cells were implanted subcutaneously into the animals at the axilla. One day after the implantation, 0.2 ml of physiological saline containing Compound (I) at the concentration indicated in Table 3 was intravenously administered to each mouse. T/C [T: average tumor volume (mm^3) of the group treated with the test compound, C: that of the control group which received an intravenous administration of 0.2 ml of physiological saline] was determined seven days after the implantation.

Turning to `COC(=O)C1(C)Nc2c(O)cc3c(c2C1=O)CC(Br)CN3C(=O)c1cc2cc(OC)c(OC)c(OC)c2[nH]1` (stereo not shown) [DC-89B1], the antibacterial activity entry in the series with various bacteria is “exhibit an antibacterial activity against various bacteria”. The anti-tumor activity result in the series on melanoma B-16 is reported as “show an anti-tumor activity against melanoma B-16”. With `COC(=O)C1(C)Nc2c(OC(=O)N3CCC(N4CCCCC4)CC3)cc3c(c2C1=O)CC(Br)CN3C(=O)c1cc2cc(OC)c(OC)c(OC)c2[nH]1` (stereo not shown) [Compound 5], in the series on ddY-strain male mice, the “Acute Toxicity (MLD), minimum lethal dose” value (“Acute Toxicity (MLD)” below) was 2.0 mg/kg. For `COC(=O)C1(C)NC2=C(C1=O)C13CC1CN(C(=O)c1cc4cc(OC)c(OC)c(OC)c4[nH]1)C3=CC2=O` (stereo not shown) [DC-88A], the antibacterial activity entry with various bacteria is “shows an antibacterial activity against a variety of bacteria”. In addition, in the series with melanoma B-16, the anti-tumor activity entry was “exhibits an anti-tumor activity against melanoma B-16”. With `COC(=O)C1(C)Nc2c(OC(=O)N3CCN(CCN)CC3)cc3c(c2C1=O)CC(Br)CN3C(=O)c1cc2cc(OC)c(OC)c(OC)c2[nH]1` (stereo not shown) [Compound 4], the T/C with Sarcoma 180 tumor (dose 1.0 mg/kg, 1 mg/kg) stood at 0.047. For the same molecule, the “Acute Toxicity (MLD)” value in the series on ddY-strain male mice turned out to be 2.0 mg/kg. Turning to `COc1cc2cc(C(=O)N3CC(Br)Cc4c3cc(OC(=O)N(C)C)c3[nH]c(C)cc43)[nH]c2c(OC)c1OC` (stereo not shown) [Compound 9], the T/C in the series on Sarcoma 180 tumor (dose 0.25 mg/kg) is reported as 0.15; in the series on Sarcoma 180 tumor (dose 0.50 mg/kg), 0.068. Besides, the “Acute Toxicity (MLD)” value in the series on ddY-strain male mice is reported as 0.50 mg/kg. Regarding `COC(=O)c1c(C)[nH]c2c(O[Si](C)(C)C(C)(C)C)cc3c(c12)CC(Cl)CN3C(=O)c1cc2cc(OC)c(OC)c(OC)c2[nH]1` (stereo not shown) [Compound 10], in the series on ddY-strain male mice, the “Acute Toxicity (MLD)” value is recorded as greater than 8.0 mg/kg. With `COC(=O)C1(C)Nc2c(O)cc3c(c2C1=O)CC(Cl)CN3C(=O)c1cc2cc(OC)c(OC)c(OC)c2[nH]1` (stereo not shown) [DC-89A1], the antibacterial activity entry with various bacteria is listed as “exhibit an antibacterial activity against various bacteria”. The anti-tumor activity entry with melanoma B-16 is recorded as “show an anti-tumor activity against melanoma B-16”. `COC(=O)C1(C)Nc2c(OC(=O)N3CCN(C)CC3)cc3c(c2C1=O)CC(Cl)CN3C(=O)c1cc2cc(OC)c(OC)c(OC)c2[nH]1` (stereo not shown) [Compound 14]: in the series on ddY-strain male mice, the “Acute Toxicity (MLD)” value is greater than 16 mg/kg. For the molecule `COC(=O)c1c(C)[nH]c2c(O[Si](C)(C)C(C)(C)C)cc3c(c12)CC(Br)CN3C(=O)c1cc2cc(OC)c(OC)c(OC)c2[nH]1` (stereo not shown) [Compound 7], the T/C in the series on Sarcoma 180 tumor (dose 1.0 mg/kg) was found to be 0.13; with Sarcoma 180 tumor (dose 2.0 mg/kg) it was 0.025. Moreover, the “Acute Toxicity (MLD)” value with ddY-strain male mice worked out at 4.0 mg/kg. Consider `COC(=O)C1(C)Nc2c(O)cc3c(c2C1=O)C(CCl)CN3C(=O)c1cc2cc(OC)c(OC)c(OC)c2[nH]1` (stereo not shown) [DC-89A2], for which the antibacterial activity entry in the series with various bacteria is “exhibit an antibacterial activity against various bacteria”. The anti-tumor activity entry with melanoma B-16 is recorded as “show an anti-tumor activity against melanoma B-16”.

In the case of `COC(=O)C1(C)Nc2c(OC(=O)N3CCC(N4CCCCC4)CC3)cc3c(c2C1=O)CC(Br)CN3C(=O)c1cc2cc(OC)c(OC)c(OC)c2[nH]1` (stereo not shown) [Compound 6], the “Acute Toxicity (MLD)” value in the series with ddY-strain male mice is given as 4.0 mg/kg. As to `COC(=O)C1(C)Nc2c(OC(=O)N3CCN(CCN)CC3)cc3c(c2C1=O)CC(Br)CN3C(=O)c1cc2cc(OC)c(OC)c(OC)c2[nH]1` (stereo not shown) [Compound 3], the T/C stood at 0.25 with Sarcoma 180 tumor (dose 0.50 mg/kg) and 0.094 with Sarcoma 180 tumor (dose 1.0 mg/kg, 1 mg/kg). Moreover, in the series with ddY-strain male mice, the “Acute Toxicity (MLD)” value is on record as 2.0 mg/kg. In the case of `COC(=O)C1(C)Nc2c(O)cc3c(c2C1=O)C(CBr)CN3C(=O)c1cc2cc(OC)c(OC)c(OC)c2[nH]1` (stereo not shown) [DC-89B2], in the series with various bacteria, the antibacterial activity result is given as “exhibit an antibacterial activity against various bacteria”. In addition, the anti-tumor activity entry in the series with melanoma B-16 is “show an anti-tumor activity against melanoma B-16”. For `COc1cc2cc(C(=O)N3CC(Cl)Cc4c3cc(O[Si](C)(C)C(C)(C)C)c3[nH]c(C)cc43)[nH]c2c(OC)c1OC` (stereo not shown) [Compound 11], the “Acute Toxicity (MLD)” value in the series with ddY-strain male mice is given as greater than 8.0 mg/kg. Turning to `COC(=O)C1(C)Nc2c(OC(=O)N3CCN(C)CC3)cc3c(c2C1=O)CC(Br)CN3C(=O)c1cc2cc(OC)c(OC)c(OC)c2[nH]1` (stereo not shown) [Compound 2], the T/C in the series with Sarcoma 180 tumor (dose 1.0 mg/kg) was found to be 0.19; in the series on Sarcoma 180 tumor (dose 2.0 mg/kg), 0.083. Moreover, the “Acute Toxicity (MLD)” value in the series on ddY-strain male mice is 5.2 mg/kg. `COc1cc2cc(C(=O)N3CC(Br)Cc4c3cc(O[Si](C)(C)C(C)(C)C)c3[nH]c(C)cc43)[nH]c2c(OC)c1OC` (stereo not shown) [Compound 8] gave a T/C with Sarcoma 180 tumor (dose 2.0 mg/kg) of 0.19. Besides, the “Acute Toxicity (MLD)” value in the series with ddY-strain male mice came to 8.0 mg/kg.
